# Counter-ions that a name gives are not always drawn.
# System: not given
# Experiment: not given
# Settings: not given
row,SMILES,melting point [°C]
1,COC(=O)c1cccc(-c2nc(C(=O)c3ccc(N)c(OC)c3)n3ccccc23)c1,166
2,COc1cc(C(=O)c2ncc3cc(C(=O)O)ccn23)ccc1[N+](=O)[O-],> 350
3,COC(=O)c1ccc2cnc(C(=O)c3ccc([N+](=O)[O-])c(OC)c3)n2c1,218
4,COC(=O)c1ccc2cnc(C(=O)c3ccc(N)c(OC)c3)n2c1,179
5,COc1cc(C(=O)c2nc(C#N)c3ccccn23)ccc1N (as salt: HCl),224
6,COc1cc(C(=O)c2nc(Br)c3ccccn23)ccc1N (as salt: HCl) (hydrate or solvate),204
7,COc1cccc(C(=O)Nc2nc(C(=O)c3ccc(N)c(OC)c3)n3ccccc23)c1 (as salt: HCl) (hydrate or solvate),199
8,COc1cc(C(=O)c2nc(-c3cccc(F)c3)c3ccccn23)ccc1N (as salt: HCl) (hydrate or solvate),228
9,COc1cc(C(=O)c2ncc3cc(C(=O)O)ccn23)ccc1N (as salt: HCl) (hydrate or solvate),268
10,COC(=O)[C@@H](C)NC(=O)c1ccn2c(C(=O)c3ccc(N)c(OC)c3)ncc2c1 (as salt: HCl) (hydrate or solvate),192
11,COc1cc(C(=O)c2ncc3c(C(=O)O)cccn23)ccc1N (as salt: Na),259
12,COc1cc(C(=O)c2ncc3c(C(=O)O)cccn23)ccc1[N+](=O)[O-] (as salt: Na),332
13,COc1cccc(-c2nc(C(=O)c3ccc(N)c(OC)c3)n3ccc(C(=O)O)cc23)c1 (as salt: Na) (hydrate or solvate),307
14,COc1cc(C(=O)c2ncc3cc(OCC(=O)O)ccn23)ccc1N (as salt: Na) (hydrate or solvate),302
15,COc1cc(C(=O)c2ncc3ccc(C(=O)N[C@@H](CO)C(=O)O)cn23)ccc1N (as salt: Na) (hydrate or solvate),244

# System: level of circulating platelets
# Experiment: Effect on thrombopenia induced by carboplatin in the mouse
# Format: in vivo
# Settings: 150 mg/kg intraperitoneally, balbC mice, at nadir
# Source text: Thrombopenia remains a pathology for which few effective treatments exist apart from the transfusion of platelet concentrates and thrombopoietin (Kaushansky, K., New Eng. J. Med., (1998), 339, pp. 746-754).
# Anticancer chemotherapy constitutes one of the major causes of thrombopenia. One of the agents of chemotherapy, carboplatin, has been widely used to induce thrombopenia in the mouse and to be able thus to characterize the effect of compounds capable of improving the level of platelets, such as, for example, thrombopoietin (Hokom M. M. et al., Blood, (1995), 86, pp. 4486-4492).
# 150 mg/kg of carboplatin were administered intraperitoneally to balbC mice having a weight of 20 g. A blood sample is taken periodically by retro-orbital puncture and the level of circulating platelets is determined by a hematology automated machine (MS9™ from Melet-Schloesing Laboratoires, Cergy-Pontoise, France). […]
# The compounds according to the invention or their solvent (a blank-control) are administered by the oral route for 5 days, the treatment being begun 7 days before the administration of carboplatin. The experiments are carried out on batches comprising 10-12 mice and the results are expressed as a mean±standard error. […]
row,SMILES,reduction in the level of circulating platelets
1,N.N.O=C([O-])C1(C(=O)[O-])CCC1.[Pt+2] [carboplatin],50-60%
